Reference: PubChem BioAssay AID248 (DTP/NCI, 2004)
Several values for one entry are separate records, joined by “and”; a condition that tells them apart may be missing. Identical values can stand only once. Inconclusive results and toxic doses are left out. Rule as the data show it: active = T/C of 150% or more; inactive = T/C below 125%.

Tested on: L1210 leukemia ip in BDF1 mice, survival T/C
Assay: NCI In Vivo Anticancer Drug Screen. Data for tumor model L1210 Leukemia (intraperitoneal) in B6D2F1 (BDF1) mice
Conditions: endpoint: mean survival time, higher = longer survival
In short: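 Transplanted-tumor mice were given test agent; controls received vehicle only. Survival readings from the two groups were divided (treated over control).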

[1] = dose: 75.0 mg/kg/injection, schedule: Q01DX001 (ip), vehicle: saline
[2] = dose: 150.0 mg/kg/injection, schedule: Q01DX001 (ip), vehicle: saline
[3] = dose: 100.0 mg/kg/injection, schedule: Q04DX002 (ip), vehicle: Klucel (hydroxypropylcellulose) (HPC)
[4] = dose: 200.0 mg/kg/injection, schedule: Q04DX002 (ip), vehicle: Klucel (hydroxypropylcellulose) (HPC)
[5] = dose: 400.0 mg/kg/injection, schedule: Q04DX002 (ip), vehicle: Klucel (hydroxypropylcellulose) (HPC)
[6] = dose: 50.0 mg/kg/injection, schedule: Q01DX001 (ip), vehicle: carboxymethylcellulose (CMC)
[7] = dose: 100.0 mg/kg/injection, schedule: Q01DX001 (ip), vehicle: carboxymethylcellulose (CMC)
[8] = dose: 200.0 mg/kg/injection, schedule: Q01DX001 (ip), vehicle: carboxymethylcellulose (CMC)
[9] = dose: 400.0 mg/kg/injection, schedule: Q01DX001 (ip), vehicle: carboxymethylcellulose (CMC)
[10] = dose: 100.0 mg/kg/injection, schedule: Q01DX009 (ip), vehicle: saline with Tween-80
[11] = dose: 200.0 mg/kg/injection, schedule: Q01DX009 (ip), vehicle: saline with Tween-80
[12] = dose: 400.0 mg/kg/injection, schedule: Q01DX009 (ip), vehicle: saline with Tween-80
[13] = dose: 100.0 mg/kg/injection, schedule: Q01DX009 (ip), vehicle: Klucel (hydroxypropylcellulose) (HPC)
[14] = dose: 100.0 mg/kg/injection, schedule: Q04DX003 (ip), vehicle: Klucel (hydroxypropylcellulose) (HPC)
[15] = dose: 200.0 mg/kg/injection, schedule: Q01DX009 (ip), vehicle: Klucel (hydroxypropylcellulose) (HPC)
[16] = dose: 200.0 mg/kg/injection, schedule: Q04DX003 (ip), vehicle: Klucel (hydroxypropylcellulose) (HPC)
[17] = dose: 400.0 mg/kg/injection, schedule: Q01DX009 (ip), vehicle: Klucel (hydroxypropylcellulose) (HPC)
[18] = dose: 400.0 mg/kg/injection, schedule: Q04DX003 (ip), vehicle: Klucel (hydroxypropylcellulose) (HPC)
[19] = dose: 100.0 mg/kg/injection, schedule: Q04DX003 (ip), vehicle: saline with Tween-80
[20] = dose: 200.0 mg/kg/injection, schedule: Q04DX003 (ip), vehicle: saline with Tween-80

Measured: T/C

NC(C(=O)O)C(O)C(=O)O (centres undefined)
inactive: dose: 75.0 mg/kg/injection, schedule: Q04DX003 (ip), vehicle: saline 98 % of control | dose: 150.0 mg/kg/injection, schedule: Q04DX003 (ip), vehicle: saline 98 % of control | dose: 300.0 mg/kg/injection, schedule: Q04DX003 (ip), vehicle: saline 96 % of control

N#CC1C2C=CC(CC2)C1C#N (centres undefined) (tested in a mixture with another compound)
inactive: dose: 0.25 mg/kg/injection, schedule: Q01DX Z (ip), vehicle: carboxymethylcellulose (CMC) 95 % of control | dose: 0.5 mg/kg/injection, schedule: Q01DX Z (ip), vehicle: carboxymethylcellulose (CMC) 93 % of control | dose: 1.0 mg/kg/injection, schedule: Q01DX Z (ip), vehicle: carboxymethylcellulose (CMC) 95 % of control | dose: 2.0 mg/kg/injection, schedule: Q01DX Z (ip), vehicle: carboxymethylcellulose (CMC) 93 % of control | dose: 5.0 mg/kg/injection, schedule: Q01DX001 (ip), vehicle: saline 98 % of control | dose: 10.0 mg/kg/injection, schedule: Q01DX001 (ip), vehicle: saline 95 % of control

O=C1CCC2C3CCC(=O)C3C12 (centres undefined)
inactive: [1] 102 % of control | [2] 97 % of control

Nc1ncc(N=O)c(=O)[nH]1
inactive: [3] 96 % of control | [4] 99 % of control | [5] 96 % of control and 101 % of control

O=C(Nc1ccccc1)C(CCCN1C(=O)c2ccccc2C1=O)N1C(=O)c2ccccc2C1=O (centres undefined)
inactive: [1] 100 % of control | [2] 104 % of control | dose: 300.0 mg/kg/injection, schedule: Q01DX001 (ip), vehicle: saline 96 % of control

COc1ccc(C(=O)Nc2c(C)cccc2C)cc1
inactive: dose: 100.0 mg/kg/injection, schedule: Q01DX009 (ip), vehicle: carboxymethylcellulose (CMC) 94 % of control and 90 % of control | [3] 112 % of control | dose: 100.0 mg/kg/injection, schedule: Q04DX002 (ip), vehicle: carboxymethylcellulose (CMC) 97 % of control and 108 % of control | dose: 100.0 mg/kg/injection, schedule: Q04DX003 (ip), vehicle: carboxymethylcellulose (CMC) 104 % of control | dose: 200.0 mg/kg/injection, schedule: Q01DX009 (ip), vehicle: carboxymethylcellulose (CMC) 94 % of control and 92 % of control | [4] 108 % of control | dose: 200.0 mg/kg/injection, schedule: Q04DX002 (ip), vehicle: carboxymethylcellulose (CMC) 100 % of control and 101 % of control | dose: 200.0 mg/kg/injection, schedule: Q04DX003 (ip), vehicle: carboxymethylcellulose (CMC) 106 % of control | dose: 400.0 mg/kg/injection, schedule: Q01DX009 (ip), vehicle: carboxymethylcellulose (CMC) 94 % of control and 97 % of control | [5] 108 % of control | dose: 400.0 mg/kg/injection, schedule: Q04DX002 (ip), vehicle: carboxymethylcellulose (CMC) 103 % of control | dose: 400.0 mg/kg/injection, schedule: Q04DX003 (ip), vehicle: carboxymethylcellulose (CMC) 106 % of control

O=C(O)c1cc(-c2ccc(N(CCCl)CCCl)cc2)nc2ccccc12
inactive: dose: 100.0 mg/kg/injection, schedule: Q01DX001 (ip), vehicle: other 104 % of control | dose: 200.0 mg/kg/injection, schedule: Q01DX001 (ip), vehicle: other 104 % of control | dose: 400.0 mg/kg/injection, schedule: Q01DX001 (ip), vehicle: other 96 % of control

O=C1OC(c2ccccc2)=N/C1=C\c1ccccc1
inactive: [6] 93 % of control | [7] 95 % of control | dose: 100.0 mg/kg/injection, schedule: Q04DX002 (ip), vehicle: gum acacia 91 % of control | [8] 101 % of control | dose: 200.0 mg/kg/injection, schedule: Q04DX002 (ip), vehicle: gum acacia 109 % of control | [9] 90 % of control | dose: 400.0 mg/kg/injection, schedule: Q04DX002 (ip), vehicle: gum acacia 98 % of control

CCCCCOc1ccc(Nc2c3ccccc3nc3ccccc23)cc1
inactive: dose: 100.0 mg/kg/injection, schedule: Q01DX001 (ip), vehicle: Klucel (hydroxypropylcellulose) (HPC) 102 % of control | dose: 200.0 mg/kg/injection, schedule: Q01DX001 (ip), vehicle: Klucel (hydroxypropylcellulose) (HPC) 111 % of control | dose: 400.0 mg/kg/injection, schedule: Q01DX001 (ip), vehicle: Klucel (hydroxypropylcellulose) (HPC) 107 % of control

COc1ccc(C(C)=O)c(O)c1C
inactive: [10] 111 % of control | [11] 94 % of control | [12] 92 % of control

CC12CCC3C(CCC4CCCCC43C)C1CCC2CO (centres undefined)
inactive: dose: 100.0 mg/kg/injection, schedule: Q04DX002 (ip), vehicle: DMSO 101 % of control | dose: 200.0 mg/kg/injection, schedule: Q04DX002 (ip), vehicle: DMSO 99 % of control | dose: 400.0 mg/kg/injection, schedule: Q04DX002 (ip), vehicle: DMSO 89 % of control

CCOC(=O)C(C)C1=CCCc2c(C)ccc(C)c21 (centres undefined)
inactive: [13] 91 % of control | [14] 98 % of control | [15] 94 % of control | [16] 97 % of control | [17] 94 % of control | [18] 101 % of control

CN=C(c1ccc(NC(=O)c2ccc(C(=O)Nc3ccc(C(=NC)N(C)Cc4ccccc4)cc3)cc2)cc1)N(C)Cc1ccccc1
inactive: dose: 1.88 mg/kg/injection, schedule: Q01DX Z (ip), vehicle: saline 104 % of control | dose: 3.75 mg/kg/injection, schedule: Q01DX Z (ip), vehicle: saline 98 % of control | dose: 7.5 mg/kg/injection, schedule: Q01DX Z (ip), vehicle: saline 97 % of control

O=C(CSc1cc(Cl)c(Cl)cc1Cl)Nc1cccc(Br)c1
inactive: dose: 50.0 mg/kg/injection, schedule: Q04DX003 (ip), vehicle: saline with Tween-80 94 % of control | [19] 87 % of control | [20] 96 % of control

COc1cc2ccc(Cc3nccc4cc(OC)c(OC)cc34)cc2cc1OC
inactive: [13] 91 % of control | [14] 100 % of control | [15] 106 % of control | [16] 92 % of control | [17] 101 % of control | [18] 92 % of control

c1cc[n+]2c(c1)CC[n+]1ccccc1CC2
inactive: [6] 106 % of control | [7] 100 % of control | [8] 122 % of control | [9] 106 % of control

O=C1CCCCCCCCCC/C(=N/O)CCCO1
inactive: dose: 100.0 mg/kg/injection, schedule: Q01DX001 (ip), vehicle: saline with Tween-80 100 % of control | dose: 200.0 mg/kg/injection, schedule: Q01DX001 (ip), vehicle: saline with Tween-80 92 % of control | dose: 400.0 mg/kg/injection, schedule: Q01DX001 (ip), vehicle: saline with Tween-80 89 % of control

COc1cc(NS(=O)(=O)c2ccc(C)cc2)c2c(c1N)C(=O)c1ccccc1C2=O
inactive: [10] 105 % of control | [19] 98 % of control | [11] 94 % of control | [20] 98 % of control | [12] 100 % of control | dose: 400.0 mg/kg/injection, schedule: Q04DX003 (ip), vehicle: saline with Tween-80 93 % of control
